Reference: patent US20230031406A1, “COMPOUNDS AND COMPOSITIONS FOR TREATING CONDITIONS ASSOCIATED WITH NLRP ACTIVITY” (Novartis AG, priority 2018, published 2023)
Like-named read-outs stand apart in the source and are kept apart here. Each block holds one compound with its values, some of them ahead of it.

Tested on: PMA-differentiated THP-1 cells
Assay: hTHP-1 assay containing 10% fetal bovine serum (IL-1β production, Tables B5 and B6)
Type: cell-based, human
Conditions: read-out: hTHP-1 IC50 in 10% FBS, hTHP-1 assay containing 10% fetal bovine serum, Table B5
Protocol: The following protocol is suitable for testing the activity of the compounds disclosed herein. Procedure 1: IL-1β Production in PMA-Differentiated THP-1 Cells Stimulated with Gramicidin.
THP-1 cells were purchased from the American Type Culture Collection and sub-cultured according to instructions from the supplier. Cells were cultured in complete RPMI 1640 (containing 10% heat inactivated FBS, penicillin (100 units/ml) and streptomycin (100 μg/ml)), and maintained in log phase prior to experimental setup. Prior to the experiment, compounds were dissolved in dimethyl sulfoxide (DMSO) to generate a 30 mM stock. The compound stock was first pre-diluted in DMSO to 3, 0.34, 0.042 and 0.0083 mM intermediate concentrations and subsequently spotted using Echo550 liquid handler into an empty 384-well assay plate to achieve desired final concentration (e.g. 100, 33, 11, 3.7, 1.2, 0.41, 0.14, 0.046, 0.015, 0.0051, 0.0017 μM). DMSO was backfilled in the plate to achieve a final DMSO assay concentration of 0.37%. The plate was then sealed and stored at room temperature until required.
THP-1 cells were treated with PMA (Phorbol 12-myristate 13-acetate) (20 ng/ml) for 16-18 hours. On the day of the experiment the media was removed and adherent cells were detached with trypsin for 5 minutes. […] The cells were plated in the 384-well assay plate containing the spotted compounds at a density of 50,000 cells/well (final assay volume 50 μl). Cells were incubated with compounds for 1 hour and then stimulated with gramicidin (5 μM) (Enzo) for 2 hours. Plates were then centrifuged at 340 g for 5 min. Cell free supernatant (40 μL) was collected using a 96—CHannel PlateMaster (Gilson) and the production of IL-1β was evaluated by HTRF (cisbio). The plates were incubated for 18 h at 4° C. and read using the preset HTRF program (donor emission at 620 nm, acceptor emission at 668 nm) of the SpectraMax i3x spectrophotometer (Molecular Devices, software SoftMax 6). A vehicle only control and a dose titration of CRID3 (100-0.0017 μM) were run concurrently with each experiment.
Procedure 2: IL-1β Production in PMA-Differentiated THP-1 Cells Stimulated with Gramicidin.
THP-1 cells were purchased from the American Type Culture Collection and sub-cultured according to instructions from the supplier. Prior to experiments, cells were cultured in complete RPMI 1640 (containing 10% heat inactivated FBS, penicillin (100 units/ml) and streptomycin (100 μg/ml)), and maintained in log phase prior to experimental setup. Prior to the experiment THP-1 were treated with PMA (Phorbol 12-myristate 13-acetate) (20 ng/ml) for 16-18 hours. Compounds were dissolved in dimethyl sulfoxide (DMSO) to generate a 30mM stock. On the day of the experiment the media was removed and adherent cells were detached with trypsin for 5 minutes. […] The cells were plated in a 384-well plate at a density of 50,000 cells/well (final assay volume […]). Compounds were first dissolved in assay medium to obtain a 5× top concentration of 500 μM. 10 step dilutions (1:3) were then undertaken in assay medium containing 1.67% DMSO. 5× compound solutions were added to the culture medium to achieve desired final concentration (e.g. 100, 33, 11, 3.7, 1.2, 0.41, 0.14, 0.046, 0.015, 0.0051, 0.0017 μM). Final DMSO concentration was at 0.37%. Cells were incubated with compounds for 1 hour and then stimulated with gramicidin (5 μM) (Enzo) for 2 hours. Plates were then centrifuged at 340 g for 5 min. Cell free supernatant (40 μL) was collected using a 96—CHannel PlateMaster (Gilson) and the production of IL-1β was evaluated by HTRF (cisbio). A vehicle only control and a dose titration of CRID3 (100-0.0017 μM) were run concurrently with each experiment.
Tables B1, B2, B3, and B4 show the biological activity of compounds in hTHP-1 assay containing 2% fetal bovine serum. […] Key: <0.008 μM=“++++++”; ≥0.008 and <0.04 μM=“+++++”; >0.04 and <0.2 μM=“++++”; ≥0.2 and <1 μM=“+++”; ≥1 and <5 μM=“++”; ≥5 and <30 μM=“+”. […]

Compound: CCn1cc(F)c(S(N)(=O)=NC(=O)Nc2c(C)c(C(F)(F)F)nc3c2CC(C)C3)n1 (single isomer, unassigned) [Compound 1101d, (R, R) or (R, S)-N′-((3,6-dimethyl-2-(trifluoromethyl)-6,7-dihydro-5H-cyclopenta[b]pyridin-4-yl)carbamoyl)-1-ethyl-4-fluoro-1H-pyrazole-3-sulfonimidamide]
IC50 (listed as 824): 200 to 1000 nM

Compound: CCn1cc(F)c(S(N)(=O)=NC(=O)Nc2c(C)c(C(F)(F)F)nc3c2CC(C)C3)n1 (single isomer, unassigned) [Compound 1101e, (R, S) or (R, R)-N′-((3,6-dimethyl-2-(trifluoromethyl)-6,7-dihydro-5H-cyclopenta[b]pyridin-4-yl)carbamoyl)-1-ethyl-4-fluoro-1H-pyrazole-3-sulfonimidamide]
IC50 (listed as 825): 8 to 40 nM

Compound: CC(C)(O)c1csc(S(N)(=O)=NC(=O)Nc2c3c(nc(C4CC4)c2C2CC2)CCC3)c1F (single isomer, unassigned) [Compound 1106a, (R) or (S)-N′-((2,3-dicyclopropyl-6,7-dihydro-5H-cyclopenta[b]pyridin-4-yl)carbamoyl)-3-fluoro-4-(2-hydroxypropan-2-yl)thiophene-2-sulfonimidamide]
IC50 (listed as 830): 40 to 200 nM

Compound: CC(C)(O)c1csc(S(N)(=O)=NC(=O)Nc2c3c(nc(C4CC4)c2C2CC2)CCC3)c1F (single isomer, unassigned) [Compound 1106b, (S) or (R)-N′-((2,3-dicyclopropyl-6,7-dihydro-5H-cyclopenta[b]pyridin-4-yl)carbamoyl)-3-fluoro-4-(2-hydroxypropan-2-yl)thiophene-2-sulfonimidamide]
IC50 (listed as 831): 1000 to 5000 nM

Compound: Cc1c(C(F)(F)F)nc2c(c1NC(=O)N=S(N)(=O)c1scc(C(C)(C)O)c1F)CCC2 (single isomer, unassigned) [Compound 1108a, (R) or (S)-3-fluoro-4-(2-hydroxypropan-2-yl)-N′-((3-methyl-2-(trifluoromethyl)-6,7-dihydro-5H-cyclopenta[b]pyridin-4-yl)carbamoyl)thiophene-2-sulfonimidamide]
IC50 (listed as 840): 40 to 200 nM

Compound: Cc1c(C(F)(F)F)nc2c(c1NC(=O)N=S(N)(=O)c1scc(C(C)(C)O)c1F)CCC2 (single isomer, unassigned) [Compound 1108b, (S) or (R)-3-fluoro-4-(2-hydroxypropan-2-yl)-N′-((3-methyl-2-(trifluoromethyl)-6,7-dihydro-5H-cyclopenta[b]pyridin-4-yl)carbamoyl)thiophene-2-sulfonimidamide]
IC50 (listed as 841): 1000 to 5000 nM

Compound: C[C@@H]1CCc2c1nc1c(c2NC(=O)N=S(N)(=O)c2scc(C(C)(C)O)c2F)CCC1 (single isomer, unassigned) [Compound 1109a, (R) or (S)-3-fluoro-4-(2-hydroxypropan-2-yl)-N′-(((R)-3-methyl-1,2,3,5,6,7-hexahydrodicyclopenta [b,e]pyridin-8-yl)carbamoyl) thiophene-2-sulfonimidamide]
IC50 (listed as 842): 8 to 40 nM

Next, values leading:

IC50 (listed as 828): 5000 to 30000 nM
Compound: Cc1c(C(F)(F)F)nc2c(c1NC(=O)N=S(N)(=O)c1cnc(C(F)F)s1)CCC2 (single isomer, unassigned) [Compound 1007b, (S) or (R)-2-(Difluoromethyl)-N′-((3-methyl-2-(trifluoromethyl)-6,7-dihydro-5H-cyclopenta[b]pyridin-4-yl)carbamoyl)thiazole-5-sulfonimidamide]

IC50 (listed as 826): 40 to 200 nM
Compound: CC(C)n1cc(F)c(S(N)(=O)=NC(=O)Nc2c3c(nc(C(F)(F)F)c2C2CC2)CCC3)n1 (single isomer, unassigned) [Compound 1104a, (R) or (S)-N′-((3-cyclopropyl-2-(trifluoromethyl)-6,7-dihydro-5H-cyclopenta[b]pyridin-4-yl)carbamoyl)-4-fluoro-1-isopropyl-1H-pyrazole-3-sulfonimidamide]

IC50 (listed as 827): 1000 to 5000 nM
Compound: CC(C)n1cc(F)c(S(N)(=O)=NC(=O)Nc2c3c(nc(C(F)(F)F)c2C2CC2)CCC3)n1 (single isomer, unassigned) [Compound 1104b, (S) or (R)-N′-((3-cyclopropyl-2-(trifluoromethyl)-6,7-dihydro-5H-cyclopenta[b]pyridin-4-yl)carbamoyl)-4-fluoro-1-isopropyl-1H-pyrazole-3-sulfonimidamide]

IC50 (listed as 834): 40 to 200 nM
Compound: CC(C)(O)c1csc(S(N)(=O)=NC(=O)Nc2c3c(nc(C(F)(F)F)c2C2CC2)CCC3)c1F (single isomer, unassigned) [Compound 1105a, (R) or (S)-N′-((3-cyclopropyl-2-(trifluoromethyl)-6,7-dihydro-5H-cyclopenta[b]pyridin-4-yl)carbamoyl)-3-fluoro-4-(2-hydroxypropan-2-yl)thiophene-2-sulfonimidamide]

IC50 (listed as 835): 200 to 1000 nM
Compound: CC(C)(O)c1csc(S(N)(=O)=NC(=O)Nc2c3c(nc(C(F)(F)F)c2C2CC2)CCC3)c1F (single isomer, unassigned) [Compound 1105b, (S) or (R)-N′-((3-cyclopropyl-2-(trifluoromethyl)-6,7-dihydro-5H-cyclopenta[b]pyridin-4-yl)carbamoyl)-3-fluoro-4-(2-hydroxypropan-2-yl)thiophene-2-sulfonimidamide]

IC50 (listed as 838): 40 to 200 nM
Compound: CC(C)(O)c1csc(S(N)(=O)=NC(=O)Nc2c3c(nc4c2CCC4)CCC3)c1F (single isomer, unassigned) [Compound 1107a, (R) or (S)-3-fluoro-N′-((1,2,3,5,6,7-hexahydrodicyclopenta[b,e]pyridin-8-yl)carbamoyl)-4-(2-hydroxypropan-2-yl)thiophene-2-sulfonimidamide]

IC50 (listed as 839): 1000 to 5000 nM
Compound: CC(C)(O)c1csc(S(N)(=O)=NC(=O)Nc2c3c(nc4c2CCC4)CCC3)c1F (single isomer, unassigned) [Compound 1107b, (S) or (R)-3-fluoro-N′-((1,2,3,5,6,7-hexahydrodicyclopenta[b,e]pyridin-8-yl)carbamoyl)-4-(2-hydroxypropan-2-yl)thiophene-2-sulfonimidamide]
